In US11026426B2, “Oxadiazole and phenol derivatives as antibacterial and/or herbicidal agents” (NORTHERN ILLINOIS RESEARCH FOUNDATION, priority 2017, dated 2021):
Read-outs that look alike come from different tables or passages of the source.

Legend:
Assay type in all cases: cell-based
Mycobacterium smegmatis = test: Antibacterial assay zone of inhibition Ms
Escherichia coli = test: Antibacterial assay zone of inhibition Ec
Pseudomonas aeruginosa = test: Antibacterial assay zone of inhibition Pa
Corynebacterium xerosis = test: Antibacterial assay zone of inhibition Cx
[1] = test system: Burkholderia thailandensis
Micrococcus luteus = test: Antibacterial assay zone of inhibition Ml
[2] = test system: Corynebacterium pseudodiphtheriae; test: Antibacterial assay zone of inhibition Cp
Klebsiella pneumonia = test: Antibacterial assay zone of inhibition Kp
Bacillus cereus = test: Antibacterial assay zone of inhibition Bc

Row | SMILES | Antibacterial Ms zone of inhibition (Mycobacterium smegmatis; 0.1 mM) | Antibacterial Ms zone of inhibition (Mycobacterium smegmatis; 0.5 mM) | Antibacterial Ms zone of inhibition (Mycobacterium smegmatis; 1 mM) | Antibacterial Ec zone of inhibition (Escherichia coli; 0.1 mM) | Antibacterial Ec zone of inhibition (Escherichia coli; 0.5 mM) | Antibacterial Pa zone of inhibition (Pseudomonas aeruginosa; 0.1 mM) | Antibacterial Pa zone of inhibition (Pseudomonas aeruginosa; 0.5 mM) | Antibacterial Pa zone of inhibition (Pseudomonas aeruginosa; 1 mM) | Antibacterial Cx zone of inhibition (Corynebacterium xerosis; 0.1 mM) | Antibacterial Cx zone of inhibition (Corynebacterium xerosis; 0.5 mM) | Antibacterial Cx zone of inhibition (Corynebacterium xerosis; 1 mM) | Antibacterial Ml zone of inhibition (Micrococcus luteus; 0.1 mM) | Antibacterial Ml zone of inhibition (Micrococcus luteus; 0.5 mM) | Antibacterial Ml zone of inhibition (Micrococcus luteus; 1 mM) | Antibacterial Cp zone of inhibition ([2]; 0.1 mM) | Antibacterial Cp zone of inhibition ([2]; 0.5 mM) | Antibacterial Cp zone of inhibition ([2]; 1 mM) | Antibacterial Kp zone of inhibition (Klebsiella pneumonia; 0.1 mM) | Antibacterial Kp zone of inhibition (Klebsiella pneumonia; 0.5 mM) | Antibacterial Kp zone of inhibition (Klebsiella pneumonia; 1 mM) | also measured
1 | Clc1ccc(OCc2nnc(-c3nc4ccccc4s3)o2)cc1 [HGN-826] | 0 millimeters | 13 millimeters | 20 millimeters | 0 millimeters | 0 millimeters | 0 millimeters | 0 millimeters | 0 millimeters | 0 millimeters | 0 millimeters | 0 millimeters | 0 millimeters | 0 millimeters | 0 millimeters | 0 millimeters | 0 millimeters | 0 millimeters | 0 millimeters | 0 millimeters | 0 millimeters | Antibacterial Ec zone of inhibition (Escherichia coli; 1 mM): 0 millimeters; Antibacterial Bt zone of inhibition ([1]; 0.1 mM): 0 millimeters; Antibacterial Bt zone of inhibition ([1]; 0.5 mM): 0 millimeters; Antibacterial Bt zone of inhibition ([1]; 1 mM): 0 millimeters; Antibacterial Bc zone of inhibition (Bacillus cereus; 0.1 mM): 0 millimeters; Antibacterial Bc zone of inhibition (Bacillus cereus; 0.5 mM): 0 millimeters; Antibacterial Bc zone of inhibition (Bacillus cereus; 1 mM): 12 millimeters
2 | c1ccc(OCc2nnc(-c3nc4ccccc4s3)o2)cc1 [HGN-840] | 0 millimeters | 0 millimeters | 0 millimeters | 0 millimeters | 0 millimeters | 0 millimeters | 0 millimeters | 0 millimeters | 0 millimeters | 0 millimeters | 0 millimeters | 0 millimeters | 0 millimeters | 0 millimeters | 0 millimeters | 12 millimeters | 19 millimeters | 0 millimeters | 0 millimeters | 16.5 millimeters | Antibacterial Ec zone of inhibition (Escherichia coli; 1 mM): 0 millimeters; Antibacterial Bt zone of inhibition [1]: 0 14 17.5 millimeters; Antibacterial Bc zone of inhibition (Bacillus cereus; 0.1 mM): 0 millimeters; Antibacterial Bc zone of inhibition (Bacillus cereus; 0.5 mM): 0 millimeters; Antibacterial Bc zone of inhibition (Bacillus cereus; 1 mM): 14.5 millimeters
3 | c1ccc(OCc2nnc(-c3cc4ccccc4[nH]3)o2)cc1 [HGN-811] | 0 millimeters | 0 millimeters | 0 millimeters | 0 millimeters | 0 millimeters | 0 millimeters | 0 millimeters | 0 millimeters | 0 millimeters | 0 millimeters | 0 millimeters | 0 millimeters | 0 millimeters | 0 millimeters | 0 millimeters | 0 millimeters | 0 millimeters | 0 millimeters | 0 millimeters | 0 millimeters | Antibacterial Ec zone of inhibition (Escherichia coli; 1 mM): 0 millimeters; Antibacterial Bt zone of inhibition [1]: 0 8 12 millimeters; Antibacterial Bc zone of inhibition (Bacillus cereus; 0.1 mM): 0 millimeters; Antibacterial Bc zone of inhibition (Bacillus cereus; 0.5 mM): 12.5 millimeters; Antibacterial Bc zone of inhibition (Bacillus cereus; 1 mM): 16 millimeters
4 | Clc1ccc(CCc2nnc(-c3nc4ccccc4s3)o2)c(Cl)c1 [HGN-824] | 0 millimeters | 12 millimeters | 18 millimeters | 0 millimeters | 0 millimeters | 0 millimeters | 0 millimeters | 0 millimeters | 0 millimeters | 0 millimeters | 0 millimeters | 0 millimeters | 0 millimeters | 0 millimeters | 0 millimeters | 0 millimeters | 10 millimeters | 0 millimeters | 0 millimeters | 0 millimeters | Antibacterial Ec zone of inhibition (Escherichia coli; 1 mM): 0 millimeters; Antibacterial Bt zone of inhibition ([1]; 0.1 mM): 0 millimeters; Antibacterial Bt zone of inhibition ([1]; 0.5 mM): 0 millimeters; Antibacterial Bt zone of inhibition ([1]; 1 mM): 0 millimeters; Antibacterial Bc zone of inhibition (Bacillus cereus; 0.1 mM): 0 millimeters; Antibacterial Bc zone of inhibition (Bacillus cereus; 0.5 mM): 0 millimeters; Antibacterial Bc zone of inhibition (Bacillus cereus; 1 mM): 0 millimeters
5 | Clc1ccc(OCc2nnc(-c3cc4ccccc4[nH]3)o2)c(Cl)c1 [HGN-810] | 0 millimeters | 0 millimeters | 0 millimeters | 0 millimeters | 0 millimeters | 0 millimeters | 0 millimeters | 0 millimeters | 0 millimeters | 0 millimeters | 0 millimeters | 0 millimeters | 0 millimeters | 0 millimeters | 0 millimeters | 0 millimeters | 0 millimeters | 0 millimeters | 0 millimeters | 0 millimeters | Antibacterial Ec zone of inhibition (Escherichia coli; 1 mM): 0 millimeters; Antibacterial Bt zone of inhibition ([1]; 0.1 mM): 0 11.5 17 millimeters; Antibacterial Bt zone of inhibition ([1]; 0.5 mM): 0 11.5 17 millimeters; Antibacterial Bt zone of inhibition ([1]; 1 mM): 0 11.5 17 millimeters; Antibacterial Bc zone of inhibition (Bacillus cereus; 0.1 mM): 0 millimeters; Antibacterial Bc zone of inhibition (Bacillus cereus; 0.5 mM): 11 millimeters; Antibacterial Bc zone of inhibition (Bacillus cereus; 1 mM): 16.5 millimeters
6 | Cc1ccc(OCc2nnc(-c3nc4ccccc4s3)o2)cc1 [HGN-825] | 0 millimeters | 13 millimeters | 18 millimeters | 0 millimeters | 0 millimeters | 0 millimeters | 0 millimeters | 0 millimeters | 0 millimeters | 0 millimeters | 0 millimeters | 0 millimeters | 0 millimeters | 11 millimeters | 0 millimeters | 0 millimeters | 0 millimeters | 0 millimeters | 0 millimeters | 0 millimeters | Antibacterial Ec zone of inhibition (Escherichia coli; 1 mM): 0 millimeters; Antibacterial Bt zone of inhibition [1]: 0 millimeters; Antibacterial Bc zone of inhibition (Bacillus cereus; 0.1 mM): 0 millimeters; Antibacterial Bc zone of inhibition (Bacillus cereus; 0.5 mM): 0 millimeters; Antibacterial Bc zone of inhibition (Bacillus cereus; 1 mM): 11.5 millimeters
7 | CC(C)(C)c1ccc(OCc2nnc(-c3nc4ccccc4s3)o2)cc1 [HGN-836] | 0 millimeters | 0 millimeters | 0 millimeters | 0 NT millimeters | 0 NT millimeters | 0 millimeters | 0 millimeters | 0 millimeters | 0 millimeters | 0 millimeters | 11 millimeters | 0 millimeters | 0 millimeters | 0 millimeters | 0 millimeters | 0 millimeters | 0 millimeters | 0 millimeters | 0 millimeters | 7 millimeters | Antibacterial Bt zone of inhibition ([1]; 0.1 mM): 0 15 18 millimeters; Antibacterial Bt zone of inhibition ([1]; 0.5 mM): 0 15 18 millimeters; Antibacterial Bt zone of inhibition ([1]; 1 mM): 0 15 18 millimeters; Antibacterial Bc zone of inhibition (Bacillus cereus; 0.1 mM): 0 millimeters; Antibacterial Bc zone of inhibition (Bacillus cereus; 0.5 mM): 0 millimeters; Antibacterial Bc zone of inhibition (Bacillus cereus; 1 mM): 13 millimeters
